{
  "source": "patent US20180362473A1",
  "about": "“BIOORTHOGONAL METHODS AND COMPOUNDS” (The University Court of the University of Edinburgh, priority 2013, published 2018)",
  "type_in_all_cases": "cell-based",
  "key": {"[1]": {"system": "colorectal HCT116 cells", "test": "PrestoBlue cell viability assay, 5 days treatment", "details": "for cytotoxic effect / effect on cell viability of prodrug alone: HCT116, without palladium, 5 days, doses up to 1,000 μM (FIG. 18A: 0.1-300 μM); for toxigenic effect of prodrug combined with Pd^0-resins (BOOM conversion): HCT116, prodrug 100 μM + Pd^0-resin 1 mg/mL", "description": "(§1) The toxicities of 5FU and its prodrugs were compared by performing dose-response studies with 5FU and Pro-5FU (0.01 μM to 1 mM). Doses of Pro-5FU and 5FU (0.01, 0.03, 0.1, 0.3, 1, 3, 10, 30 and 100 μM, for both cell lines, and additional doses of 300 μM and 1,000 μM for colorectal HCT116 cells) were incubated with cells for 5 days and cell viability measured to determine the corresponding EC values. Cell viability was analysed by fluoresce intensity nm; nm) after 45 min incubation with PrestoBlue™ Reagent (Life Technologies).\n(§2) The toxigenic effect as a result of in situ generation of 5FU in cell culture was determined by incubating colorectal HCT116 cells or pancreatic BXPc-3 cells in tissue culture media containing 0.1% (viv) DMSO and a) Pd^0-resin (1 mg/mL, negative control); b) prodrug (negative, control); or c) Pd^0-resin (1 mg prodrug (reaction assay). Cells incubated in 0.1% (v/v) DMSO in media was used as an untreated cell reference standard (100% viability). A PrestoBlue® cell viability assay as described above was carried out and fluorescent intensities compared to the untreated cell control. Prodrug concentrations were 100 μM for HCT116 cells, and 30 μM for BxPC-3 cells.\n(§3) HCT116 and BXPc-3 cells were plated in Dulbecco's Modified Eagle Media (DMEM) and Roswell Park Memorial Institute (RPMI) respectively, supplemented with serum (10% FBS) and L-glutamine (2 mM). Cells were seeded in a 96 wail plate format with a density of either 30.000 cells and incubated for 48 h at 37° C. and 5% CO2 before treatment. Each well was then replaced with fresh media containing: Pd^0-resins (1 mg/ml) (negative control); prodrug (0.01 μM to 1 mM) in DMSO (0.1% v/v) (negative control); 5FU (0.01 μM to 1 mM) in DMSO (0.1% v/v) (positive control); or a combination of Pd^0 resin+prodrug (0.01 μM to 1 mM in 0.1% v/v DMSO). Cells incubated in 0.1% (v/v) DMSO in media were used as untreated cell reference standard (i.e. 100% cell viability). Cells were incubated in the fresh media for 5 days. PrestoBlue cell viability reagent (Life Technologies) (10% v/v) was then added to each well and the plate incubated for 45 min, Fluorescence intensity values (detected using a PerkinElmer EnVision 2101 multilabel reader with excitation filter at 540 nm and emissions filter at 590 nm) were determined relative to the untreated cell control."}, "[2]": {"system": "pancreatic BxPC-3 cells", "test": "PrestoBlue cell viability assay, 5 days treatment", "details": "for toxigenic effect of prodrug combined with Pd^0-resins (BOOM conversion): BxPC-3, prodrug 30 μM + Pd^0-resin 1 mg/mL; for EC50: Homo sapiens, 120 h, PrestoBlue", "description": "as §1, §2, §3"}, "[3]": {"system": "HCT116 cells", "test": "Real-time confluence study (Incucyte live-cell imaging)", "details": "HCT116, 100 μM, 5 days (120 h)", "description": "FIGS. 9A and 9B show real-time cell confluence study data for Pro-5FU and 5FU (HCT116 cells in FIG. 9A and BXPc-3 cells in FIG. 9B) plotting cell proliferation (indicated by % phase object confluence) against time. Cell proliferation was monitored for 5 days (120 h) using the high-content live-cell imaging system Incucyte™ (Essen BioScience) placed in an incubator (5% CO2, 37° C.), Pro-5FU and 5FU were used at 100 μM and 10 μM for HCT116 and BXPc-3 cells, respectively.\n(§4) To study the phenotypic effect of the prodrug catalyst system compared to 5FU, cell proliferation was monitored for 5 days (120 h) using the high-content live-cell imaging system Incucyte™ Essen BioScience) placed in an incubator (5% CO2, 37° C.). Cell confluence analysis and supplementary movies 1 and 2 were carried out using the Incucyte software. Experiments (performed as described above for the dose response cell viability assay) were imaged by time-lapse contrast phase microscopy and cell growth represented as a function of total cell confluence."}, "[4]": {"system": "total p53 protein and phosphorylated p53 (Serine 15) in HCT116 cells", "test": "Zeptosens Reverse Phase Protein Microarray analysis", "details": "HCT116, 100 μM, 24 h exposure", "description": "Post-translational modifications of cancer relevant pathways (including p53) were quantified by antibody-based proteomics across time-series studies using Zeptosens Reverse Phase Protein Microarray analysis.\nCells were plated in their respective supplemented media in a 6 well plate at a density of 240,000 cells/mL and incubated for 46 h. Before adding to the cells, Fro-5FU (100 μM for HCT116) and Pd^0-resins (1 mg/mL) were incubated for 24h to overcome the time relapse required to convert Pro-5FU into 5FU. Cells were treated with the Pd^8 resin+Pro-5FU combination and the controls (as before: untreated cells; Pd^0; Pro-5FU; and 5FU) and incubated for 6 and 24 h. Afterwards, the cells were washed with PBS (2×3 mL) and lysed with Zeptosens CLB1 lysis buffer (90 μl). Samples were analyzed by Zeptosens RPPA using the following specific conditions. Tumor cell lysates were normalized to a uniform protein concentration with spotting buffer CSBL1 (Zeptosens-Bayer) prior to preparing a final 4-fold concentration series of; 0.2; 0.15; 0.1 and […]. […] A weighted linear fit through the 4-fold concentration series was used to calculate relative fluorescence intensity (RFI) value for each sample replicate. […] Abundance levels of total p53 protein and phosphorylated p53 (Serine 15) were plotted as RFI data calculated by the ZeptoView™ 3.1 software."}, "[5]": {"system": "BxPC-3 cells", "test": "Real-time confluence study (Incucyte live-cell imaging)", "details": "BxPC-3, 30 μM, 5 days (120 h)", "description": "FIGS. 9A and 9B show real-time cell confluence study data for Pro-5FU and 5FU (HCT116 cells in FIG. 9A and BXPc-3 cells in FIG. 9B) plotting cell proliferation (indicated by % phase object confluence) against time. […]\nas §4"}, "[6]": {"system": "pancreatic BxPC-3 cells", "test": "Test for competitive inhibition by prodrug (cell viability)", "details": "BxPC-3, 5FU 1 μM + Pro-5FU 0.1-1,000 μM, prodrug/drug ratio up to 100:1", "description": "(§5) Cells were incubated with 5FU (10 μM for HCT116 cells and 1 μM for BxPC-3 cells) in combination with increasing doses of Pro-5FU (0.1-1,000 μM), and cell viability determined."}, "[7]": {"system": "colorectal HCT116 cells", "test": "Test for competitive inhibition by prodrug (cell viability)", "details": "HCT116, 5FU 10 μM + Pro-5FU 0.1-1,000 μM, prodrug/drug ratio up to 100:1", "description": "as §5"}},
  "note": "Where two headings read alike, the source gives them in different places.",
  "data": [
    {"smiles": "C#CCn1c(=O)[nH]cc(F)c1=O", "note": "[Compound 6]", "values": [
      {"measurement": "cytotoxic effect / effect on cell viability of prodrug alone", "setting": "[1]", "result": "no effect"}
    ]},
    {"smiles": "O=c1[nH]c(=O)n(Cc2ccccc2)cc1F", "note": "[Bn-5FU]", "values": [
      {"measurement": "toxigenic effect of prodrug combined with Pd^0-resins (BOOM conversion)", "setting": "[2]", "result": "low levels of toxicity"},
      {"measurement": "toxigenic effect of prodrug combined with Pd^0-resins (BOOM conversion)", "setting": "[1]", "result": "low levels of toxicity"}
    ]},
    {"smiles": "C=CCn1cc(F)c(=O)[nH]c1=O", "note": "[All-5FU]", "values": [
      {"measurement": "toxigenic effect of prodrug combined with Pd^0-resins (BOOM conversion)", "setting": "[2]", "result": "No appreciable cytotoxicity"},
      {"measurement": "toxigenic effect of prodrug combined with Pd^0-resins (BOOM conversion)", "setting": "[1]", "result": "No appreciable cytotoxicity"}
    ]},
    {"smiles": "O=c1[nH]cc(F)c(=O)[nH]1", "note": "[Compound 5FU, 5-fluorouracil]", "values": [
      {"measurement": "cell growth (confluence) vs time", "setting": "[3]", "result": "decreased rapidly after a few hours"},
      {"measurement": "abundance of total and Ser15-phosphorylated p53", "setting": "[4]", "result": "overexpressed"},
      {"measurement": "EC50", "setting": "[2]; BXPc-3, 5 days incubation, read-out: EC50 5FU", "result": 136, "unit": "nM"},
      {"measurement": "EC50", "setting": "[2]; BxPC-3, 5 days incubation, read-out: EC50", "result": 136, "unit": "nM"},
      {"measurement": "EC50", "setting": "[1]; Homo sapiens, HCT-116, 120 h, HCT116, 5 days incubation, PrestoBlue, read-out: EC50 5FU", "result": 2000, "unit": "nM"},
      {"measurement": "cell growth (confluence) vs time", "setting": "[5]", "result": "decreased rapidly after a few hours"}
    ]},
    {"smiles": "O=c1[nH]c(=O)n([C@H]2C[C@H](O)[C@@H](CO)O2)cc1F", "note": "[FUDR, floxuridine]", "values": [
      {"measurement": "times more potent than 5-FU", "setting": "[1]", "result": "around 50 times"}
    ]},
    {"smiles": "C#CCn1cc(F)c(=O)[nH]c1=O", "note": "[Pro-5FU]", "values": [
      {"measurement": "abundance of total and Ser15-phosphorylated p53", "setting": "[4]", "result": "no induction"},
      {"measurement": "fold reduction in effect versus 5FU", "setting": "[2]; BxPC-3, prodrug without palladium", "result": "greater than 700 fold"},
      {"measurement": "fold reduction in effect, EC50 (Pro-5FU)/EC50 (5FU)", "setting": "[1]; HCT116, prodrug without palladium", "result": "greater than 500 fold"},
      {"measurement": "cytotoxic effect / effect on cell viability of prodrug alone", "setting": "[1]", "result": "no effect"},
      {"measurement": "effect of prodrug on cytotoxicity of 5FU", "setting": "[6]", "result": "no antagonistic effect"},
      {"measurement": "effect of prodrug on cytotoxicity of 5FU", "setting": "[7]", "result": "no antagonistic effect"}
    ]},
    {"smiles": "C#CCn1c(=O)c(F)cn([C@H]2CC(O)[C@@H](CO)O2)c1=O", "note": "(stereo partly shown) [Compound 11, 3-propergyl-floxuridine]", "values": [
      {"measurement": "times less cytotoxic effect on cell viability than floxuridine", "setting": "[1]; HCT116, dose range 0.003-30 μM, without palladium", "result": "over 1000 times"}
    ]}
  ]
}
